Reference: ChEMBL document CHEMBL1201862, “PubChem BioAssay data set” (2004)
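Cultured in 96-well plates, cells were exposed to test compound for 48 hours across five concentrations. The concentration for 50% growth inhibition is given as GI50.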 The source made the active and inactive calls. Cut-off read from the data, not from the text of the source: active = GI50 up to about 1.1 µM and inactive = higher.

Tests used:
Assay in all cases: DTP human tumour cell line panel, 48 h
[1] = tested on: ACHN
[2] = tested on: DU-145
[3] = tested on: HCC 2998
[4] = tested on: HOP-62
[5] = tested on: HT-29
[6] = tested on: IGROV-1
[7] = tested on: M14
[8] = tested on: MCF7
[9] = tested on: MDA-N
[10] = tested on: NCI-H460
[11] = tested on: OVCAR-8
[12] = tested on: SF-295
[13] = tested on: SF-539
[14] = tested on: SN12C
[15] = tested on: SNB-75
[16] = tested on: SR
[17] = tested on: UACC-62
[18] = tested on: RPMI-8226
[19] = tested on: SK-MEL-2

Measured: GI50

Cc1ccc2c(c1)CC1(C2=O)[C@H](c2ccccc2)C2C(=O)c3ccc(C)cc3C2[C@H]1c1ccccc1 (some centres undefined)
inactive: [1] > 100 µM | [2] > 100 µM | [3] 43 µM | [4] > 100 µM | [5] > 100 µM | [6] > 100 µM | [7] > 100 µM | [8] 69.8 µM | [9] > 100 µM | [10] > 100 µM | [11] > 100 µM | [12] > 100 µM | [13] > 100 µM | [14] > 100 µM | [15] > 100 µM | [16] 36.9 µM | [17] > 100 µM

O=C1OC(c2ccccc2)=N/C1=C\c1ccc(N(CCCl)CCCl)cc1
inactive: [1] > 62.5 µM | [2] > 100 µM | [3] > 100 µM | [4] > 89.5 µM | [5] > 100 µM | [6] > 100 µM | [7] > 100 µM | [8] 39.9 µM | [9] > 100 µM | [10] > 77.4 µM | [11] > 100 µM | [18] 35.1 µM | [12] > 100 µM | [13] > 100 µM | [19] > 27.2 µM | [14] > 92 µM | [15] > 100 µM | [16] 11.6 µM | [17] > 100 µM

CCOc1nc2c(N3CCCC3)nc(N3CCNCC3)nc2nc1NCc1ccccc1
inactive: [1] 1.58 µM | [3] 1.34 µM | [6] 1.19 µM | [7] 1.61 µM | [8] 1.53 µM | [10] 1.41 µM | [11] 1.73 µM | [18] 1.39 µM | [12] 1.76 µM | [13] 1.52 µM | [19] 1.66 µM | [14] 1.5 µM | [16] 1.31 µM | [17] 1.83 µM
active: [2] 0.944 µM | [4] 1.05 µM | [5] 0.83 µM | [9] 1.11 µM | [15] 0.975 µM

Cn1c2c(c3ccccc31)CCN1OCC=C[C@@H](C(=O)O)[C@@H]21
inactive: [1] > 100 µM | [2] > 100 µM | [3] > 100 µM | [4] > 100 µM | [5] > 100 µM | [6] > 100 µM | [7] > 100 µM | [8] > 100 µM | [9] > 100 µM | [10] > 100 µM | [11] > 100 µM | [13] > 100 µM | [19] > 100 µM | [14] > 100 µM | [15] 82 µM | [16] > 100 µM | [17] > 100 µM

O=C(O)CCCOc1cc(-c2ccccc2F)nc2cc3c(cc12)OCO3
inactive: [2] 5.75 µM | [3] 46.1 µM | [4] 4.01 µM | [5] 4.54 µM | [6] 2.58 µM | [7] 3.73 µM | [8] 5.35 µM | [9] 1.72 µM | [11] 5.66 µM | [18] 3.73 µM | [13] 3.4 µM | [19] 4.99 µM | [14] 19.3 µM | [15] 6.56 µM | [16] 3.93 µM | [17] 6.17 µM

CN(C)CCNc1nc2c(no[n+]2[O-])c2ccccc12.[O-][Cl+3]([O-])([O-])O
inactive: [1] 13.8 µM | [2] 6.19 µM | [3] 28.2 µM | [4] 13 µM | [5] 27.6 µM | [6] 18 µM | [7] 15.7 µM | [8] 19.7 µM | [9] 28.9 µM | [10] 19.5 µM | [11] 14.6 µM | [18] 52.7 µM | [12] 28 µM | [13] 11.5 µM | [19] 19.4 µM | [14] 25.6 µM | [15] 23.7 µM | [16] 15.1 µM | [17] 21 µM

CN1CCN(C(=O)c2cn(Cc3cncn3Cc3ccc4c(c3)OCO4)cc2-c2cccc3ccccc23)CC1
inactive: [1] 9.98 µM | [2] 37.4 µM | [3] 10.6 µM | [4] 26.9 µM | [5] 3.11 µM | [6] 2.85 µM | [8] 14.2 µM | [10] 2.46 µM | [11] 31.6 µM | [18] 7.05 µM | [12] 6.24 µM | [13] 21.1 µM | [14] 17.5 µM | [15] 14.7 µM | [17] 7.96 µM
active: [7] 0.273 µM | [9] 0.378 µM | [19] 0.268 µM | [16] 0.0237 µM

CC1(CCCC2(C)CCNC2=O)OCCO1 (centres undefined)
inactive: [1] > 10 µM | [2] > 10 µM | [3] > 10 µM | [4] > 10 µM | [5] > 10 µM | [6] > 10 µM | [7] > 10 µM | [8] > 10 µM | [9] > 10 µM | [10] > 10 µM | [11] > 10 µM | [18] > 10 µM | [12] > 10 µM | [13] > 10 µM | [19] > 10 µM | [14] > 10 µM | [15] > 10 µM | [16] > 10 µM | [17] > 10 µM

C[n+]1c2ccccc2c(C(=O)Nc2ccc(S(=O)(=O)Nc3ncccn3)cc2)c2ccccc21
inactive: [1] > 100 µM | [2] > 100 µM | [3] > 100 µM | [4] > 100 µM | [5] > 100 µM | [6] > 100 µM | [7] > 100 µM | [8] > 100 µM | [9] 47.4 µM | [10] > 100 µM | [11] > 100 µM | [18] > 100 µM | [12] > 100 µM | [13] > 100 µM | [19] > 100 µM | [14] > 100 µM | [15] 72.8 µM | [16] > 100 µM | [17] > 100 µM

O=c1[nH]cnc2cccc(Cl)c12
inactive: [1] > 100 µM | [2] > 100 µM | [3] > 100 µM | [4] > 100 µM | [5] > 100 µM | [6] > 100 µM | [7] > 100 µM | [8] > 100 µM | [9] > 100 µM | [10] > 100 µM | [11] > 100 µM | [12] > 100 µM | [13] > 100 µM | [19] > 100 µM | [14] > 100 µM | [15] 65.2 µM | [16] > 100 µM | [17] > 100 µM

O=[N+]([O-])C(=C(Nc1ccccc1)Nc1ccccc1)/C(Cl)=C(\Cl)[N+](=O)[O-]
inactive: [1] 2.61 µM | [2] 2.65 µM | [3] 12.2 µM | [4] 10.3 µM | [5] 3.27 µM | [7] 4.75 µM | [8] 4.14 µM | [9] 2.77 µM | [10] 14.7 µM | [11] 1.44 µM | [18] 3.15 µM | [12] 9.35 µM | [13] 1.84 µM | [19] 9.84 µM | [14] 2.48 µM | [15] 7.57 µM | [17] 4.58 µM
active: [16] 1.11 µM

COc1cc(Oc2c(C)c(Cl)c(OC)c(Cl)c2OC)c2c(c1Cl)COC2=O
inactive: [1] 12.9 µM | [2] 52.6 µM | [3] 26.6 µM | [5] 9.23 µM | [6] 17.6 µM | [7] 27.7 µM | [8] 14.4 µM | [9] 14.3 µM | [10] 10.7 µM | [11] 17.6 µM | [18] 3.52 µM | [12] 15.6 µM | [13] 31.5 µM | [14] 17.4 µM | [15] 41.9 µM | [16] 3.85 µM | [17] 33.7 µM

O=C(c1ccc(Cl)cc1)N(Cc1cccnc1)C(=S)N(Cc1cccnc1)C(=O)c1ccc(Cl)cc1
inactive: [1] 36.1 µM | [2] 31.1 µM | [3] 25.9 µM | [4] 50.7 µM | [5] 26.1 µM | [7] 22.7 µM | [8] 29.7 µM | [9] 22.2 µM | [10] 44.2 µM | [11] 29.6 µM | [18] 13.2 µM | [12] 43.3 µM | [13] 23 µM | [19] 23 µM | [14] 18.6 µM | [15] 37.1 µM | [16] 50.4 µM | [17] 24.3 µM

COc1ccc2c(c1)NC1(CCN(CCCC(=O)c3ccc(F)cc3)CC1)N=N2
inactive: [1] 27.5 µM | [2] 18.5 µM | [3] 14.8 µM | [4] 24.7 µM | [5] 24.6 µM | [6] 21 µM | [7] 13.7 µM | [8] 17.4 µM | [9] 17.7 µM | [10] 26.1 µM | [18] 16.6 µM | [12] 19.6 µM | [13] 19.8 µM | [19] 17.9 µM | [14] 21 µM | [15] 15.1 µM | [16] 15.7 µM | [17] 20.9 µM

O=C1CCCCCCCCCCC1CN(Cc1ccccc1)Cc1ccccc1 (centres undefined)
inactive: [1] 30 µM | [2] 59 µM | [3] 28.8 µM | [4] > 100 µM | [6] > 100 µM | [7] 48 µM | [8] 23.7 µM | [9] 40.1 µM | [11] 75.3 µM | [18] 22.2 µM | [12] 32.6 µM | [13] 45.2 µM | [14] > 100 µM | [15] 2.84 µM | [16] 35.5 µM | [17] 13.7 µM
